# Experimental data published in patent US20230096766A1, “AMINO ACID HAVING FUNCTIONAL GROUP CAPABLE OF INTERMOLECULAR HYDROGEN BONDING, PEPTIDE COMPOUND CONTAINING SAME AND METHOD FOR PRODUCTION THEREOF” (Chugai Seiyaku Kabushiki Kaisha, priority 2018, published 2023).
# *1 amine or outer side, *2 acyl side, *3 side chain or, on linkers, in order; H or OH if unused. Where a SMILES comes first, the peptide text is derived from it. Bridges are numbered along the chain shown (N, C = ends). [ ]: non-standard residue; d: D form. The star is where a group is joined. ξ: configuration not given here. X1 = COc1cc(C[C@H](N[*:1])C(=O)[*:2])ccc1C(=O)NO; NMePhe(3-Cl) = CN[C@@H](Cc1cccc(Cl)c1)C(=O)O; ξGln(SO2Me) = CS(=O)(=O)NC(=O)CCC(N)C(=O)O; NMehPhe = CN[C@@H](CCc1ccccc1)C(=O)O; X6 = O=C([C@H](CCCCO)N[*:1])[*:2]; NMeF = CN[C@@H](Cc1ccccc1)C(=O)O; NMeGABA = CN(CCCC(=O)[*:2])[*:1]; Butyl(3-Me,3-OH) = CC(C)(O)CC*; CH2CONHtBu = CC(C)(C)NC(=O)C*; NMeL = CN[C@@H](CC(C)C)C(=O)O; NMeA = CN[C@@H](C)C(=O)O; Piperidide = C1CCN(*)CC1; NBuGly = CCCCNCC(=O)O; NPrGly = CCCNCC(=O)O; Ethyl(2-OH) = OCC*; Sar = CNCC(=O)O; tBu = CC(C)(C)*
# Assay: in vitro
# Settings: human, Caco-2, Caco-2
row,SMILES,Papp [×10⁻⁶ cm/s]
1,CCCCN1CC(=O)N(C)[C@@H](Cc2ccccc2)C(=O)NC(CCC(=O)NS(C)(=O)=O)C(=O)N(C)[C@@H](CC(C)C)C(=O)N[C@@H](CC(C)C)C(=O)N(C)CC(=O)N(C)[C@@H](Cc2ccccc2)C(=O)N(C)[C@@H](CC(C)C)C(=O)N[C@@H](CC(C)C)C(=O)N(C)[C@@H](CC(C)C)C(=O)N[C@H](C(=O)N2CCCCC2)CC1=O (stereo partly drawn) [pd70] ([NBuGly][NMeF][ξGln(SO2Me)][NMeL]L[Sar][NMeF][NMeL]L[NMeL]D-Piperidide; lactam N-11),0.17

# Same assay, conditions: human, Caco-2, Caco-2 (cm/sec)
row,SMILES,Papp [×10⁻⁶ cm/s]
1,CC(C)C[C@@H]1NC(=O)[C@H](Cc2ccccc2)N(C)C(=O)[C@H](COC(C)(C)C)NC(=O)[C@H](Cc2ccccc2)N(C)C(=O)[C@H](C)N(C)C(=O)[C@H](CC(C)C)N(C)C(=O)[C@@H](C)NC(=O)C[C@@H](C(=O)N2CCCCC2)NC(=O)[C@H](Cc2ccccc2)N(C)C(=O)[C@H]([C@@H](C)O)NC(=O)[C@H](CC(C)C)N(C)C1=O [pd220] ([dA][NMeL][NMeA][NMeF]S(tBu)[NMeF]L[NMeL]T[NMeF]D-Piperidide; lactam N-11),1.1
2,CCCCN1CC(=O)N(C)[C@@H](CC(C)C)C(=O)N[C@@H](Cc2ccc(C(=O)NO)c(OC)c2)C(=O)N(C)[C@@H](CC(C)C)C(=O)N(C)[C@@H](CC(C)C)C(=O)N[C@H](C(=O)N2CCCCC2)CC(=O)N[C@H](CC(C)C)C(=O)N(C)[C@@H](Cc2ccccc2)C(=O)N[C@@H](C(C)C)C(=O)N(C)[C@@H](CC(C)C)C(=O)N[C@@H]([C@@H](C)O)C1=O [AP257] ([dL][NMeF]V[NMeL]T[NBuGly][NMeL][X1][NMeL][NMeL]D-Piperidide; lactam N-11),0.03
3,CCCN1CC(=O)N(C)[C@@H](CC(C)C)C(=O)N[C@H](C(=O)N2CCCCC2)CC(=O)N(C)[C@@H](C)C(=O)N[C@@H](CCCCO)C(=O)N(C)[C@@H](CC(C)C)C(=O)N(C)[C@@H](Cc2cccc(Cl)c2)C(=O)N[C@@H](C(C)C)C(=O)N(C)[C@@H](CCc2ccccc2)C(=O)N(C)[C@@H](CC(C)C)C(=O)N[C@@H]([C@@H](C)O)C1=O [Compound B05] ([NMeA][X6][NMeL][NMePhe(3-Cl)]V[NMehPhe][NMeL]T[NPrGly][NMeL]D-Piperidide; lactam N-11),0.26
4,"CCCN1CC(=O)N(C)[C@@H](Cc2ccccc2)C(=O)N[C@@H]([C@@H](C)CC)C(=O)N(C)[C@@H](CC(C)C)C(=O)N[C@@H]([C@@H](C)O)C(=O)N(C)CC(=O)N(C)[C@@H](Cc2ccccc2)C(=O)N(C)[C@@H](CC(C)C)C(=O)N[C@@H](COCCC(C)(C)O)C(=O)N(C)[C@@H](CC(C)C)C(=O)N[C@H](C(=O)N2CCCCC2)CC1=O [AP59] ([NPrGly][NMeF]I[NMeL]T[Sar][NMeF][NMeL]S(Butyl(3-Me,3-OH))[NMeL]D-Piperidide; lactam N-11)",0.78
5,CC[C@H](C)[C@@H]1NC(=O)[C@H](CC(C)C)N(C)C(=O)CCCN(C)C(=O)C[C@@H](C(=O)N2CCCCC2)NC(=O)[C@H](CC(C)C)N(C)C(=O)[C@H](CC(C)C)N(C)C(=O)[C@H]([C@@H](C)O)NC(=O)[C@H](CC(C)C)N(C)C(=O)[C@H](COCCO)NC(=O)[C@H](CCc2ccccc2)N(C)C(=O)[C@H](CCc2ccccc2)N(C)C1=O [Compound A04] ([NMeGABA][NMeL]I[NMehPhe][NMehPhe]S(Ethyl(2-OH))[NMeL]T[NMeL][NMeL]D-Piperidide; lactam N-11),0.41
6,CC(C)C[C@@H]1NC(=O)[C@H](CC(C)C)N(C)C(=O)[C@H](CCc2ccccc2)N(C)C(=O)[C@H](COCC(=O)NC(C)(C)C)NC(=O)[C@H](CC(C)C)N(C)C(=O)C[C@@H](C(=O)N2CCCCC2)NC(=O)[C@H](C)N(C)C(=O)CN(C)C(=O)[C@H]([C@@H](C)O)NC(=O)[C@H](CCc2ccccc2)N(C)C(=O)[C@H](CC(C)C)N(C)C1=O [AP16] ([NMeL]S(CH2CONHtBu)[NMehPhe][NMeL]L[NMeL][NMehPhe]T[Sar][NMeA]D-Piperidide; lactam N-11),0.27
7,CC(C)C[C@@H]1NC(=O)[C@H](Cc2ccccc2)N(C)C(=O)[C@H](CC(C)C)N(C)C(=O)[C@H](COCC(=O)NC(C)(C)C)NC(=O)[C@H](CC(C)C)N(C)C(=O)C[C@@H](C(=O)N2CCCCC2)NC(=O)[C@H](C)N(C)C(=O)CN(C)C(=O)[C@H]([C@@H](C)O)NC(=O)[C@H](CC(C)C)N(C)C(=O)[C@H](CCc2ccccc2)N(C)C1=O [AP14] ([NMeL]S(CH2CONHtBu)[NMeL][NMeF]L[NMehPhe][NMeL]T[Sar][NMeA]D-Piperidide; lactam N-11),0.39
8,CCCN1CC(=O)N(C)[C@@H](CC(C)C)C(=O)N[C@H](C(=O)N2CCCCC2)CC(=O)N(C)[C@@H](C)C(=O)N[C@@H](COCCO)C(=O)N(C)[C@@H](CC(C)C)C(=O)N(C)[C@@H](Cc2cccc(Cl)c2)C(=O)N[C@@H](CC(C)C)C(=O)N(C)[C@@H](CCc2ccccc2)C(=O)N(C)[C@@H](CC(C)C)C(=O)N[C@@H]([C@@H](C)O)C1=O [Compound A05] ([NMeA]S(Ethyl(2-OH))[NMeL][NMePhe(3-Cl)]L[NMehPhe][NMeL]T[NPrGly][NMeL]D-Piperidide; lactam N-11),0.9
